Results on 5 compounds are retold here after patent US20060264418A1, “6-(2,2,2-Trifluoroethylamino-7-chloro-2,3,4,5-tetrahydro-1h-benzo[d] azephine as a 5-ht2c receptor agonist” (priority 2003, published 2006).

The test system of data set [1] is male NIH Swiss mice. Description: Marble burying assay (with rotorod). It is filed as in vivo, mouse. The conditions noted are these: 30 min. burying session. The text has this: Marble burying in mice has been used to model anxiety disorders including obsessive-compulsive disorders (OCD) due to ethological study of the behavior (e.g. Gyertyan I. “Analysis of the marble burying response: Marbles serve to measure digging rather than evoke burying”, Behavioural Pharmacology 6: 24-31, (1995)) and due to the pharmacological effects of clinical standards (c.f., Njung′E K. Handley S L. “Evaluation of marble-burying behavior as a model of anxiety”, Pharmacology, Biochemistry & Behavior. 38: 63-67, (1991)); Borsini F., Podhorna J., and Marazziti, D. “Do animal models of anxiety predict anxiolytic effects of antidepressants?”, Psychopharmacology 163: 121-141, (2002)). Thus, drugs used in the treatment of generalized anxiety in humans (e.g. benzodiazepines) as well as compounds used to treat OCD (e.g. SSRIs like fluoxetine) decrease burying.
House experimentally-naïve male, NIH Swiss mice (Harlan Sprague-Dawley, Indianapolis, Ind.) weighing between 28-35 g in groups of 12 for at least three days prior to testing in a vivarium with 12 hr. light and dark cycles. Conduct experiments during the light cycle in a dimly lit experimental testing room. Dose mice with vehicle or compound and, after a specified pretreatment interval (generally 30 min.), place each mouse individually on a rotorod (Ugo Basile 7650) operating at a speed of 6 revolutions/min. and observe for falling. After 2 min. on the rotorod, place the mice individually in a 17×28×12 cm high plastic tub with 5 mm sawdust shavings on the floor that are covered with 20 blue marbles (1.5 cm diameter) placed in the center. After 30 min., count the number of marbles buried (⅔ covered with sawdust). Assess the compound's effect on marble burying with Dunnett's test and the effect on rotorod performance by Fisher's exact test.
Clinically effective standard compounds suppress marble burying at doses that are devoid of motor-impairing effects as measured on the rotorod. […]
A general note: In the rotarod test animals must keep their balance on a rotating rod.

Data set [2] deals with male NIH Swiss mice. Put plainly: Nestlet shredding. The conditions noted are these: 30 min. It is filed as in vivo, mouse. The source says:
Mice naturally will construct nests of material available in their living environment. Since this behavior is obsessive in nature, it has been used to model OCD (Mia Li, Denise Morrow and Jeffrey M. Witkin, “Decreases in nestlet shredding of mice by serotonin uptake inhibitors: comparison with marble burying”, Psychopharmacology, submitted Jul. 14, 2003). House experimentally-naïve male, NIH Swiss mice (Harlan Sprague-Dawley, Indianapolis, Ind.) weighing between 28-35 g in groups of 12 for at least three days prior to testing in a vivarium with a 12 hr. light/dark cycle. Conduct experiments during the light cycle in an experimental room with normal overhead fluorescent lighting. Dose mice with vehicle or test compound and after a specified pretreatment interval (generally 30 min.), place the mice individually in a 17×28×12 cm high plastic tub with about 5 mm sawdust shavings on the floor along with a pre-weighed multi-ply gauze pad (51 mm square). After 30 min., weigh the remainder of the gauze pad not removed by the mouse. Determine the weight of the gauze used for nestlet construction by subtraction. Compare the results for test compound treated mice to the results for vehicle control treated mice with Dunnett's test.
Clinically effective OCD treatment standard compounds suppress nestlet shredding at doses that are devoid of motor-impairing effects as measured by the rotorod test. […]

The test system of data set [3] is Wistar rats. Put plainly: Schedule-induced polydipsia. It is filed as in vivo, rat. The source says:
Food-deprived rats exposed to intermittent presentations of food will drink amounts of water that are far in excess of their normal daily intake and in excess of their intake when given all of their food at one time (Falk J L. “Production of polydipsia in normal rats by an intermittent food schedule”, Science 133: 195-196, (1961)). This excessive behavior is persistent and has been used to model OCD.
Maintain Wistar rats on a food restricted diet (to maintain 85% free feeding weight), but with free access to water. Train the rats in a behavioral testing chamber to press a lever to receive a food pellet under a fixed interval schedule, such that the rats are rewarded with a 45 mg food pellet the first time they press a lever after a 120 second interval has elapsed. The fixed interval is then reset to 120 seconds and the process repeated. Thus, during a 90 min. test session, the rats can earn a maximum of 45 pellets. The behavioral chamber is also equipped with a water bottle that is weighed before and after the session to determine the amount of water consumed.
Administer test compounds on Tuesdays and Fridays. Determine control day performances on Thursdays. Administer compounds either orally at 60 min. before the beginning of a test session, or subcutaneously at 20 min. before the beginning of a test session. Compare the rates of lever pressing and water consumption for each animal's performance during sessions after test compound treatment with that animal's performance during control sessions, expressed as a percent of the control rate. Average the individual percent of control rates for each dose and calculate the standard error of the mean.
The in vivo efficacy of 5HT2C compounds at the 5HT2C receptor was confirmed by the prevention of effects of the 5HT2C agonists on excessive drinking by co-administration of the 5HT2C receptor antagonist, 6-chloro-5-methyl-N-(2-(2-methylpyridin-3-yl-oxy)pyridin-5-yl)aminocarbonyl)-2,3-dihydroindole.

Data set [4] relates to Wistar rats. The conditions noted are these: general statement on standards; cited from earlier work.

In the case of `CN(C)CCCN1c2ccccc2Sc2ccc(Cl)cc21` [chlorpromazine, reference compound], the “marble burying behavior (relative to rotorod performance)” value with male NIH Swiss mice [1] is on record as “decreased marble burying only at doses that also disrupt rotorod performance”.

Turning to `C[C@H](N)Cc1ccccc1` [d-amphetamine, reference compound], the “nestlet shredding (relative to motor effects, rotorod test)” value with male NIH Swiss mice [2] is given as “decrease nestlet shredding only at doses that produce motoric side effects”. The “schedule-induced polydipsia (excessive drinking)” value in the data set on Wistar rats [3] (food restricted rats, 90 min. test session) is on record as “decreases excessive drinking only at behaviorally stimulating doses”. Further, the “suppression of excessive drinking with co-administration of the 5-HT2C receptor antagonist” value with Wistar rats [3] (rats) is listed as “not prevented”. For orientation: melting point means the temperature of the solid-liquid transition. In turn, `FC(F)(F)CNc1c(Cl)ccc2c1CCNCC2` showed a melting point of 183 to 185.2 °C. On to `CNCCC(Oc1ccc(C(F)(F)F)cc1)c1ccccc1` (stereo not shown) [fluoxetine], for which the “schedule-induced polydipsia, clinically effective OCD treatment standard compounds” value with Wistar rats [4] is on record as “suppress schedule-induced polydipsia without producing notable changes in motor patterns, food intake, or behavior the following day”. As to `CN(C)CCCN1c2ccccc2CCc2ccc(Cl)cc21` [chlomipramine], the “schedule-induced polydipsia, clinically effective OCD treatment standard compounds” value in the data set on Wistar rats [4] was “suppress schedule-induced polydipsia without producing notable changes in motor patterns, food intake, or behavior the following day”.
